Test results from patent US8790902B2, “Microorganisms having enhanced tolerance to inhibitors and stress” (UT-Batelle, LLC, priority 2009, dated 2014).
Read-outs that look alike come from different tables or passages of the source.

Legend:
[1] = system: ZM4 (p42-0347); assay: Bioscreen growth of ZM4 (p42-0347) in RM with sodium and acetate ions; format: cell-based, Zymomonas mobilis; details: ZM4 (p42-0347); RM pH 5.0 supplemented with 195 mM of the chemical, anaerobic
Protocol: (§1) FIGS. 3A-3C. […] Z. mobilis strains were grown in RM (pH5.0) overnight, 20-μL culture were then transferred into 250-μL, RM media in the Bioscreen plate. […] Strains included in this study are: ZM4: Zymomonas mobilis ZM4 wild-type; AcR: ZM4 acetate tolerant mutant (Joachimstahl 1998); ZM4 (p42-0347): ZM4 containing a gateway plasmid p42-0347 over-expressing ZM4 gene ZMO0347; AcRIM0347: AcR insertional mutant of ZMO0347; AcRIM0347 (p42-0347): AcRIM0347 containing gateway plasmid p42-0347 over-expressing ZM4 gene ZMO0347. […] Triplicates were used for each condition.
(§2) FIGS. 4A-4E. […] Z. mobilis strains were grown in RM (pH5.0) overnight, 5-μL culture were then transferred into 250-μL RM media in the Bioscreen plate. […] Strains included in this study are: ZM4: Zymomonas mobilis ZM4 wild-type; AcR: ZM4 acetate tolerant mutant; ZM4 (p42-0347): ZM4 containing a gateway plasmid p42-0347 to express ZM4 gene ZMO0347; AcRIM0347: AcR insertional mutant of ZMO0347; AcRIM0347 (p42-0347): AcRIM0347 containing gateway plasmid p42-0347. […] Duplicate biological replicates were used for each condition.
(§3) American Type Culture Collection (ATCC31821) and the Z. mobilis acetate tolerant strain AcR has been described previously (Joachimsthal et al. 2000). ZM4 and AcR were cultured in RM medium at 30° C. S. cerevisiae wild-type, deletion mutant and GST-fusion ORF over-expression strains were obtained through Open Biosystems (Huntsville, Ala.). S. cerevisiae strains were cultured in rich YPD media. CM media with 2% glucose was used for S. cerevisiae wild-type and S. cerevisiae deletion mutants, CM media with 2% glucose minus uracil was used for S. cerevisiae GST-over expressing strains, 2% galactose was used to induce the GST-fusion strains. Plasmid-containing strains were routinely grown with antibiotics at the following concentrations (μg/mL): kanamycin of 50 for E. coli and 200 for ZM4; tetracycline, 10 for E. coli and 20 for ZM4; and gentamicin, 10 for E. coli. G418 of 200 for S. cerevisiae YKO deletion mutants. Growth was monitored turbidometrically by measuring optical density at 600nm periodically with the Bioscreen C automated microbiology growth curve analysis system (Growth Curve USA, Piscataway, N.J.).

[2] = system: Zymomonas mobilis ZM4 wild-type; assay: Bioscreen growth of Z. mobilis ZM4 wild-type in RM with inhibitors; format: cell-based; details: for Final Cell Density / Growth rate: ZM4
Protocol: as §1, §2
(§4) FIGS. 5A-5E. […] Z. mobilis strains were grown in RM (pH 5.0) overnight, 5-μL culture were then transferred into 250-μL RM media in the Bioscreen plate. […] Strains included in this study are: ZM4: Zymomonas mobilis ZM4 wild-type; AcR: ZM4 acetate tolerant mutant; AcRIM0347: AcR insertional mutant of ZMO0347; AcRIM0347 (p42-0347): AcRIM0347 containing gateway plasmid p42-0347 over-expressing ZM4 gene ZMO0347.
as §3

[3] = system: S. cerevisiae Lsm deletion mutants; format: cell-based; details: 305 mM NaCl in CM broth
Protocol: (§5) FIGS. 6A-6B. […] S. cerevisiae strains were grown in CM with 2% glucose for wild-type BY4741 and the deletion mutants, CM with 2% glucose minus uracil for GST over-expression strains. Five-μL culture was then transferred into 300-μL CM broth in the Bioscreen plate.
(§6) FIGS. 7A-7P. […] S. cerevisiae strains were grown in CM with 2% glucose (CM+glucose) for wild-type BY4741 and the deletion mutants, CM with 2% glucose and 2% galactose minus uracil (CM+glucose+2% galactose) for GST overexpression strains. A 5-μL culture was then transferred into 250-μL CM broth in the Bioscreen plate.
American Type Culture Collection (ATCC31821) and the Z. mobilis acetate tolerant strain AcR has been described previously (Joachimsthal et al. 2000). ZM4 and AcR were cultured in RM medium at 30° C. S. cerevisiae wild-type, deletion mutant and GST-fusion ORF over-expression strains were obtained through Open Biosystems (Huntsville, Ala.). S. cerevisiae strains were cultured in rich YPD media. […] Growth was monitored turbidometrically by measuring optical density at 600nm periodically with the Bioscreen C automated microbiology growth curve analysis system (Growth Curve USA, Piscataway, N.J.).

[4] = system: S. cerevisiae Lsm protein over-expressing strains; assay: Bioscreen growth of S. cerevisiae Lsm protein over-expressing (GST) strains with inhibitors; format: cell-based; details: for Growth of Lsm overexpression strains with inhibitor: 1.5 g/L
Protocol: as §5, §6, §3

[5] = system: AcR: ZM4 acetate tolerant mutant; format: cell-based, Zymomonas mobilis; details: AcR
Protocol: as §1, §2, §4, §3

[6] = system: AcRIM0347 (p42-0347); format: cell-based, Zymomonas mobilis; details: for Lag phase of AcRIM0347 (p42-0347) versus AcRIM0347 grown with inhibitor: Table 4, FIGS. 5A-5D
Protocol: as §1, §2, §4, §3

[7] = system: AcRIM0347: AcR insertional mutant of ZMO0347; format: cell-based, Zymomonas mobilis; details: for Final Cell Density / Growth rate: AcRIM0347
Protocol: as §1, §2, §4, §3

[8] = system: Z. mobilis; assay: Bioscreen growth of Z. mobilis with pretreatment inhibitors (strain not specified); format: cell-based, Zymomonas mobilis; details: for Time to complete active growth and reach the stationary phase: in the presence of the inhibitor, 11 h without any inhibitor (FIGS. 5A-5D)
Protocol: FIGS. 5A-5E. Z. mobilis Hfq conferred tolerance to different classes of pretreatment inhibitors. Z. mobilis strains were grown in RM (pH 5.0) overnight, 5-μL culture were then transferred into 250-μL RM media in the Bioscreen plate. The growth differences of different strains were monitored by Bioscreen (Growth Curves USA, NJ) under anaerobic conditions in RM, pH 5.0 (A), RM with 1 g/L vanillin, pH 5.0 (B), 1 g/L furfural, pH 5.0 (C), 1 g/L HMF, pH 5.0 (D) and 0.001% H2O2 (E). Strains included in this study are: ZM4: Zymomonas mobilis ZM4 wild-type; AcR: ZM4 acetate tolerant mutant; AcRIM0347: AcR insertional mutant of ZMO0347; AcRIM0347 (p42-0347): AcRIM0347 containing gateway plasmid p42-0347 over-expressing ZM4 gene ZMO0347. This experiment has been repeated at least three times with similar result for hydrogen peroxide growth and in duplicate for the vanillin growth.
as §3

[9] = system: recombinant Zymomonas mobilis 8b; details: pure glucose/xylose solutions; cited from earlier work
[10] = pH 5.0; cited from earlier work
[11] = RM pH 5.0 supplemented with 195 mM of the chemical, anaerobic, NA = lack of growth
[12] = RM pH 5.0 supplemented with 195 mM of the chemical, anaerobic
[13] = AcRIM0347 (p42-0347), RM pH 5.0 supplemented with 195 mM of the chemical, anaerobic
[14] = RM with HMF 0.75 g/L, furfural or vanillin 1 g/L
[15] = AcRIM0347(p42-0347), RM with HMF 0.75 g/L, furfural or vanillin 1 g/L

SMILES: [Cl-].[Na+] [NaCl, sodium chloride]
- Final Cell Density [1]: 0.84 ± 0.01 OD600 nm
- Growth rate [1]: 0.25 ± 0.008 h⁻¹
- Relative inhibitory effect on wild-type Z. mobilis growth among sodium and acetate salts ([2]; 195 mM in RM): least negative influence
- Final Cell Density [2, 11]: 0.73 ± 0.01 OD600 nm
- Growth rate [2, 11]: 0.24 ± 0.008 h⁻¹
- Growth differences between Lsm mutants and wild-type BY4741 [3]: not observed
- Growth of Lsm overexpression strains compared to wild-type BY4741 ([4]; 305 mM NaCl): grew similarly to wild-type BY4741
- Final Cell Density [5, 12]: 0.96 ± 0.01 OD600 nm
- Growth rate [5, 12]: 0.29 ± 0.005 h⁻¹
- Final Cell Density [6, 13]: 0.72 ± 0.02 OD600 nm
- Growth rate [6, 13]: 0.22 ± 0.009 h⁻¹
- Reduction of growth rate and final cell density of AcRIM0347 compared to parental strain AcR ([7]; 195 mM in RM): reduced by at least a quarter
- Final Cell Density [7, 11]: 0.73 ± 0.03 OD600 nm
- Growth rate [7, 11]: 0.21 ± 0.008 h⁻¹

SMILES: O=Cc1ccc(CO)o1 [HMF, hydroxymethyl furfural]
- Final Cell Density [2, 14]: 0.93 ± 0.003 OD600 nm
- Growth rate [2, 14]: 0.36 ± 0.02 h⁻¹
- Growth of Lsm overexpression strains with inhibitor [4]: slight growth advantage
- Final Cell Density [5, 14]: 0.96 ± 0.006 OD600 nm
- Growth rate [5, 14]: 0.35 ± 0.01 h⁻¹
- Final Cell Density [6, 15]: 0.78 ± 0.02 OD600 nm
- Growth rate [6, 15]: 0.22 ± 0.001 h⁻¹
- Lag phase of AcRIM0347 (p42-0347) versus AcRIM0347 grown with inhibitor [6]: shorter lag phases
- Final Cell Density [7, 14]: 0.67 ± 0.03 OD600 nm
- Growth rate [7, 14]: 0.19 ± 0.02 h⁻¹
- Relative inhibitory effect on Z. mobilis among vanillin, furfural and HMF ([8]; Table 4 conditions): least effect
- Time to complete active growth and reach the stationary phase [8]: about 16 h

SMILES: CC(=O)[O-].[K+] [Kac, potassium acetate]
- Final Cell Density [1]: 0.34 ± 0.004 OD600 nm
- Growth rate [1]: 0.12 ± 0.006 h⁻¹
- Final Cell Density [2, 11]: 0.42 ± 0.002 OD600 nm
- Growth rate [2, 11]: 0.15 ± 0.004 h⁻¹
- Final Cell Density [5, 12]: 0.40 ± 0.000 OD600 nm
- Growth rate [5, 12]: 0.12 ± 0.000 h⁻¹
- Final Cell Density [6, 13]: 0.28 ± 0.007 OD600 nm
- Growth rate [6, 13]: 0.09 ± 0.003 h⁻¹
- Growth of hfq mutant AcRIM0347 in the presence of acetate salt ([7]; 195 mM in RM): unable to grow

SMILES: CC(=O)O [acetic acid]
- Acetic acid concentration tolerated [9]: up to 16 g/L
- Fraction in the uncharged and undissociated form (HAc) [10]: 36%

SMILES: O=Cc1ccco1 [Furfural, furfural]
- Final Cell Density [2, 14]: 0.88 ± 0.006 OD600 nm
- Growth rate [2, 14]: 0.31 ± 0.01 h⁻¹
- Growth of Lsm overexpression strains with inhibitor [4]: slight growth advantage
- Final Cell Density [5, 14]: 0.89 ± 0.009 OD600 nm
- Growth rate [5, 14]: 0.30 ± 0.005 h⁻¹
- Final Cell Density [6, 15]: 0.80 ± 0.02 OD600 nm
- Growth rate [6, 15]: 0.20 ± 0.01 h⁻¹
- Lag phase of AcRIM0347 (p42-0347) versus AcRIM0347 grown with inhibitor [6]: shorter lag phases
- Final Cell Density [7, 14]: 0.67 ± 0.001 OD600 nm
- Growth rate [7, 14]: 0.19 ± 0.03 h⁻¹
- Time to complete active growth and reach the stationary phase [8]: ~19 h
